From the supplement of paper PMC10307832

Legend:
Assay in all cases: relative viability (nuclei count vs DMSO), 5 days (fraction); higher = more cells survive
4EGI-1 + Navitoclax = compound: O=C(O)C(Cc1ccccc1[N+](=O)[O-])=NNc1nc(-c2ccc(Cl)c(Cl)c2)cs1 (mixture of isomers) [4EGI-1] + CC1(C)CCC(c2ccc(Cl)cc2)=C(CN2CCN(c3ccc(C(=O)NS(=O)(=O)c4ccc(N[C@H](CCN5CCOCC5)CSc5ccccc5)c(S(=O)(=O)C(F)(F)F)c4)cc3)CC2)C1 [Navitoclax] (partner 0.5 µM)
Method in brief: (§1)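 Lung cancer cell lines in 1536-well plates got either a single drug or a fixed anchor-drug dose together with five library-drug doses (not always all listed) in √10 steps, by pin tool, on the day after seeding. Nuclei were counted after 5 days, and relative viability is the treated-to-vehicle ratio of nuclei counts. Values are medians of duplicate plates.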

XMD8-85 + Decitabine = compound: CN1CCN(CC1)C2=CC(=C(C=C2)NC3=NC=C4C(=N3)N(C5=CC=CC=C5C(=O)N4C)C)OC [XMD8-85] + Nc1ncn([C@H]2C[C@H](O)[C@@H](CO)O2)c(=O)n1 [Decitabine] (partner 2 µM)
Method in brief: as §1

4EGI-1 + Decitabine = compound: O=C(O)C(Cc1ccccc1[N+](=O)[O-])=NNc1nc(-c2ccc(Cl)c(Cl)c2)cs1 (mixture of isomers) [4EGI-1] + Nc1ncn([C@H]2C[C@H](O)[C@@H](CO)O2)c(=O)n1 [Decitabine] (partner 2 µM)
Method in brief: as §1

XMD8-85 + Foretinib = compound: CN1CCN(CC1)C2=CC(=C(C=C2)NC3=NC=C4C(=N3)N(C5=CC=CC=C5C(=O)N4C)C)OC [XMD8-85] + COc1cc2c(Oc3ccc(NC(=O)C4(C(=O)Nc5ccc(F)cc5)CC4)cc3F)ccnc2cc1OCCCN1CCOCC1 [Foretinib] (partner 0.25 µM)
Method in brief: as §1

Cell Line	relative viability (4EGI-1 + Navitoclax; first compound 0.5 µM)	relative viability (4EGI-1 + Navitoclax; first compound 1.581 µM)	relative viability (4EGI-1 + Navitoclax; first compound 5 µM)	relative viability (4EGI-1 + Navitoclax; first compound 15.81 µM)	relative viability (4EGI-1 + Navitoclax; first compound 50 µM)	relative viability (XMD8-85 + Decitabine; first compound 0.08 µM)	relative viability (XMD8-85 + Decitabine; first compound 0.253 µM)	relative viability (XMD8-85 + Decitabine; first compound 0.8 µM)	relative viability (XMD8-85 + Decitabine; first compound 2.53 µM)	relative viability (XMD8-85 + Decitabine; first compound 8 µM)	relative viability (4EGI-1 + Decitabine; first compound 0.5 µM)	relative viability (4EGI-1 + Decitabine; first compound 1.581 µM)	relative viability (4EGI-1 + Decitabine; first compound 5 µM)	relative viability (4EGI-1 + Decitabine; first compound 15.81 µM)	relative viability (4EGI-1 + Decitabine; first compound 50 µM)	relative viability (XMD8-85 + Foretinib; first compound 0.08 µM)	relative viability (XMD8-85 + Foretinib; first compound 0.253 µM)	relative viability (XMD8-85 + Foretinib; first compound 0.8 µM)	relative viability (XMD8-85 + Foretinib; first compound 2.53 µM)	relative viability (XMD8-85 + Foretinib; first compound 8 µM)
NCI-H1975	1.2	1.05	0.984	1.08	1.18	0.392	0.359	0.382	0.328	0.35	0.367	0.433	0.375	0.355	0.221	1.05	0.925	0.917	0.779	0.561
NCI-H1703	1.54	1.06	1.6	1.19	0.427	–	–	–	–	–	–	–	–	–	–	0.353	0.363	0.33	0.374	0.35
201T	1.25	1.21	1.2	1.19	1.19	0.867	0.865	0.883	0.82	0.689	0.871	0.859	0.886	0.826	0.615	1.13	1.24	1.13	0.733	0.703
LK-2	1.18	–	1.16	1.14	0.877	0.255	0.295	0.268	0.246	0.232	0.273	–	0.318	0.315	0.166	–	1.05	1.01	0.554	0.389
HCC-78	0.96	0.492	0.753	0.829	0.802	0.672	0.694	0.736	0.671	0.675	0.768	–	0.729	0.621	0.725	0.539	0.572	0.519	0.537	0.531
EMC-BAC-2	1.16	1.2	1.05	1.08	1.09	0.873	0.961	–	1.05	0.887	1.21	–	0.972	0.904	0.436	1.1	1.05	0.975	0.965	0.754
NCI-H2023	1	–	0.989	0.626	0.175	0.176	0.198	0.25	0.244	0.227	0.242	0.173	0.221	0.128	0.0871	0.865	0.804	0.961	0.699	0.391
SK-MES-1	1.18	1.27	1.19	1.01	0.949	0.348	0.353	0.39	0.39	0.3	0.384	0.323	0.362	0.285	0.241	0.888	0.712	0.875	1	0.57
IA-LM	0.889	0.751	0.444	0.112	0.0676	–	–	–	–	–	–	–	–	–	–	1.07	1.11	1.24	0.964	0.292
NCI-H1563	–	–	–	–	–	–	–	–	–	–	–	–	–	–	–	1.05	0.935	0.836	0.892	0.767
LCLC-103H	–	–	–	–	–	0.789	0.763	0.713	0.688	0.605	0.778	0.733	0.688	0.666	0.458	0.842	0.919	0.692	0.857	0.554
SW 900	–	–	–	–	–	0.505	0.45	0.406	0.458	0.506	0.447	0.406	0.464	0.396	0.283	0.942	0.922	1.58	0.466	0.403
NCI-H522	–	–	–	–	–	0.739	0.669	0.615	0.782	0.635	0.666	0.63	0.693	0.679	0.63	–	–	–	–	–
HCC-44	0.957	0.596	0.949	0.958	0.35	0.976	0.979	0.922	0.973	0.887	0.964	0.905	0.936	0.924	0.432	–	–	–	–	–
EBC-1	0.525	0.402	0.624	0.308	0.142	–	–	–	–	–	–	–	–	–	–	0.104	0.0951	0.112	0.0978	0.0972
NCI-H1623	–	–	–	–	–	–	–	–	–	–	–	–	–	–	–	0.986	0.816	0.789	0.857	0.667
NCI-H661	–	–	–	–	–	0.589	0.552	0.629	0.62	0.553	0.582	0.568	0.519	0.385	0.341	1.16	1.09	0.989	1.07	0.91
NCI-H1648	–	–	–	–	–	0.478	0.447	0.635	0.638	0.561	0.462	0.501	0.518	0.537	0.416	–	–	–	–	–
NCI-H2342	–	–	–	–	–	0.7	0.709	0.677	0.777	0.867	0.757	0.704	0.742	0.737	0.731	0.993	0.938	1.15	0.971	0.946
NCI-H2228	1.08	1.08	0.99	0.617	0.931	–	–	–	–	–	–	–	–	–	–	0.88	0.758	0.789	0.816	0.423
CAL-12T	1.1	–	1.17	1.23	0.861	–	–	–	–	–	–	–	–	–	–	1.18	1.17	1.24	1.06	0.346
Calu-6	0.909	0.759	1.01	0.847	0.213	–	–	–	–	–	–	–	–	–	–	0.858	0.948	0.879	0.804	0.674
ABC-1	–	–	–	–	–	1.42	1.09	1.49	1.11	0.745	1.28	–	1.12	1.23	0.482	0.871	0.9	1.41	0.947	0.578
